Laboratory results from patent US5079157A, “Novel choline oxidase and method for producing the same” (priority 1988, dated 1992).
Where two headings read alike, the source gives them in different places.

Columns and labels:
choline oxidase [1] = type: biochemical
Experimental: (§1) Enzymatic activity (U/ml)=ΔA/min.×10.17×dilution ratio
Various substances were added to the reaction mixture to be used for the determination of enzymatic activity as described in the above (2) and the inhibitory effects were examined.

choline oxidase [2] = assay: Substrate specificity of choline oxidase (authentic sample of Example 1); type: biochemical, Streptomyces thermoluteus subsp. fuscus C-19; conditions: substrate used in place of choline chloride; relative to choline; enzyme of Example 1; Tris-HCl pH 8.0, 37° C
Experimental: as §1
According to the above determination method of enzymatic activity, various substrates shown in Table 2 were used in place of choline chloride in the reaction mixture, their relative activities to choline were determined. As the enzyme, the authentic sample obtained in Example 1 hereinafter was employed.

[3] = target: T1, choline oxidase (authentic sample S) (Saccharopolyspora hirsuta, UniProt A0A5M7BLR6); conditions: authentic sample S (Example 11)
T1 sequence (A0A5M7BLR6 1-515): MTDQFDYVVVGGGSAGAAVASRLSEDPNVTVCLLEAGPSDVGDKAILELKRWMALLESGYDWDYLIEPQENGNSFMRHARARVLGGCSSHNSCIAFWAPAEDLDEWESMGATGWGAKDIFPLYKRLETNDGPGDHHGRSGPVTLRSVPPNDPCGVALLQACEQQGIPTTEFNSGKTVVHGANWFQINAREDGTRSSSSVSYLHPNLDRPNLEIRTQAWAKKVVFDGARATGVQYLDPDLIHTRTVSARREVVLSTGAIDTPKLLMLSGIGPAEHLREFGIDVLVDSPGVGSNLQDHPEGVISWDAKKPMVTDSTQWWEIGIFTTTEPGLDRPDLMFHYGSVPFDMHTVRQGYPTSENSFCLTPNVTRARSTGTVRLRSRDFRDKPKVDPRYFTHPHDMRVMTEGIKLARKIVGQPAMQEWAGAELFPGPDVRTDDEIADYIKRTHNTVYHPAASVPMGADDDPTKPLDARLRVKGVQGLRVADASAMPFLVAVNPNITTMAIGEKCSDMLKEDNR
Experimental: (§2) A peroxidase (obtained from horse radish, 100 units/mg, Type I, Sigma Chemical Co., U.S.A.) is dissolved in the above mixture to obtain a reaction mixture. The reaction mixture (3.0 ml) is placed in a cuvette (d=1.0 cm) and subjected to pre-heating at 37° C. for 5 minutes. Then, the changes of absorbance at 500 nm at 37° C. are recorded by an autographic recording spectrophotometer (UV-260 Type, Shimadzu Seisakusho, Ltd.) and the changes of absorbance per minute (ΔA/min.) from the initial straight line portion are determined. The enzymatic activity is calculated by the following formula:

[4] = tested on: choline oxidase (authentic sample T); conditions: authentic sample T (Example 10)
Experimental: as §2

[5] = additive 5 mM, without addition = 100
[6] = additive 1.0 mM, without addition = 100

SMILES: [Cl-].[Cl-].[Co+2] [CoCl2]
- Relative Activity (%) (choline oxidase [1]; [5]): 36.9%

SMILES: CNCCO [N-methylaminoethanol]
- Relative Activity (%) (choline oxidase [2]): 0%

SMILES: [Ba+2].[Cl-].[Cl-] [BaCl2]
- Relative Activity (%) (choline oxidase [1]; [5]): 100%

SMILES: [Cl][Mo]([Cl])([Cl])([Cl])[Cl] [MoCl5]
- Relative Activity (%) (choline oxidase [1]; [6]): 18.1%

SMILES: Cl.N [NH4 Cl]
- Relative Activity (%) (choline oxidase [1]; [5]): 100%

SMILES: OCCNCCO [Diethanolamine]
- Relative Activity (%) (choline oxidase [2]): 0%

SMILES: [Cl][Mn][Cl] [MnCl2]
- Relative Activity (%) (choline oxidase [1]; [5]): 100%

SMILES: [Cl-].[Na+] [NaCl]
- Relative Activity (%) (choline oxidase [1]): 100%

SMILES: NCCO [Monoethanolamine]
- Relative Activity (%) (choline oxidase [2]): 0%

SMILES: [Ca+2].[Cl-].[Cl-] [CaCl2]
- Relative Activity (%) (choline oxidase [1]; [5]): 100%

SMILES: [Cl-].[Li+] [LiCl]
- Relative Activity (%) (choline oxidase [1]; [5]): 100%

SMILES: C[N+](C)(C)CC=O [Betaine aldehyde]
- Relative Activity (%) (choline oxidase [2]): 41.9%
- reactivity of the enzyme to the substrate [3]: showed reactivity
- reactivity of the enzyme to the substrate [4]: showed reactivity

SMILES: [Cl-].[K+] [KCl]
- Relative Activity (%) (choline oxidase [1]; [5]): 98.0%

SMILES: [Cl-].[Cl-].[Mg+2] [MgCl2]
- Relative Activity (%) (choline oxidase [1]; [5]): 93.8%

SMILES: [Cl][Hg][Cl] [HgCl2]
- Relative Activity (%) (choline oxidase [1]; additive 0.05 mM, without addition = 100): 83.3%
- Relative Activity (%) (choline oxidase [1]; additive 0.5 mM, without addition = 100): 60.1%
- Relative Activity (%) (choline oxidase [1]; [6]): 50.0%

SMILES: [Cl-].[Cl-].[Zn+2] [ZnCl2]
- Relative Activity (%) (choline oxidase [1]; [5]): 82.9%
